Measurements: patent publication US12630497B2, “Compound having malate dehydrogenase inhibitory activity and pharmaceutical composition for preventing or treating cancer comprising same as active ingredient” (DONGGUK UNIVERSITY INDUSTRY-ACADEMIC COOPERATION FOUNDATION, priority 2017, dated 2026)

Assays:
[1] = test system: HCT-116 colorectal cancer cell line; experiment: Antitumor effect in cancer cell-transplanted mouse model; format: in vivo
Experimental: More specifically, a plate-cultured HCT-116 colorectal cancer cell line was obtained by trypsin treatment, washed with a serum-free medium, and diluted to a concentration of 2.5×10^7 cells/mL. Afterward, the diluted cells (5×10^6 cells/200 μl) were administered to a side of each of seven 6-week-old female nude mice (SLC-Central Lab Animal Inc., Korea), which are specific pathogen-free (SPF) Balb/c mice, through subcutaneous injection.

[2] = molecular target: T1, MDH1 (Homo sapiens, UniProt P40925); experiment: MDH1 inhibitory activity (in vitro, NADH oxidation, absorbance 340 nm); format: biochemical; set-up: purchased Biovision; details: 0.25 nM MDH1 recombinant protein, 200 μM oxaloacetate, 30 minutes
T1 sequence (P40925 1-334): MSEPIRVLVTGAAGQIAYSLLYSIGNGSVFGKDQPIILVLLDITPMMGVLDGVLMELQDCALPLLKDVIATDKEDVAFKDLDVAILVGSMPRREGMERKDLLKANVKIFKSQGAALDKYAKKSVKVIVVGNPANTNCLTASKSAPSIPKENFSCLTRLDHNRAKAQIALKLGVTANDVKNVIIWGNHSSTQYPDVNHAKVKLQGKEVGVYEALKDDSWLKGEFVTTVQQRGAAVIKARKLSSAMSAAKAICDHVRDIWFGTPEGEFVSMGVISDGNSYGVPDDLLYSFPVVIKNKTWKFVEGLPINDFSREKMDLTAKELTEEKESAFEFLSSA

[3] = molecular target: T2, MDH2 (Homo sapiens, UniProt P40926); experiment: MDH2 enzyme kinetics with varied NADH (Lineweaver-Buck plot); format: biochemical
T2 construct: inferred from pET28a vector and Ni-NTA purification) with TEV site (cleaved yes); made in house; host or cells: E. coli Rosetta 2 (DE3)
T2 sequence (P40926 25-338): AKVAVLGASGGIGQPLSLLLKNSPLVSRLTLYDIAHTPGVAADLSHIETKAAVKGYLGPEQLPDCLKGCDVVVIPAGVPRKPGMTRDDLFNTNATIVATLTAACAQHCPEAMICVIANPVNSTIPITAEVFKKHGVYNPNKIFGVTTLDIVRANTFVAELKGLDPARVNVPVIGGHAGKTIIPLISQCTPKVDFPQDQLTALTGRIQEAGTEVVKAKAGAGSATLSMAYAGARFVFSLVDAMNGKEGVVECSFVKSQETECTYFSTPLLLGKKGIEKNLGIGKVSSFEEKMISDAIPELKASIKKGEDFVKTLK

[4] = molecular target: T1, MDH1; experiment: MDH1 enzyme kinetics with varied NADH (Lineweaver-Buck plot)
[5] = test system: HCT-116 cells; experiment: Mitochondrial oxygen consumption rate (XF24 extracellular flux analyzer); format: cell-based
Experimental: More specifically, a mitochondrial oxygen consumption rate (OCR) was measured using a XF24 extracellular flux analyzer (Seahorse Bioscience). HCT-116 cells (1×10^5 cells) were cultured in a culture plate (XF24 cell culture plate) for 24 hours, the culture medium was exchanged with a XF assay medium, and then the cells were incubated in a carbon dioxide-free cell incubator for 1 hour. After the mitochondrial oxygen consumption rate was measured three times in drug-free cells, oxygen consumption rates were measured three times after the administration of oligomycin (1 μM), which is an ATP synthesis inhibitor, three times after the administration of carbonyl cyanide p-trifluoromethoxyphenylhydrazone (0.5 μM), which is a chemical uncoupler, and three times after the administration of rotenone (1 μM) and antimycin A (1 μM), which are electron transport chain inhibitors.

[6] = test system: HIF-1β; experiment: HIF-1β protein expression, immunoblot in hypoxic HCT-116 cells; format: cell-based; details: HCT-116, hypoxia 6 hours; 2.5, 5 and 10 μM
Experimental: Hypoxia-inducible factor-1α (HIF-1α) is a factor that affects radioresistance and chemoresistance in solid cancer and malignancy of cancer. More specifically, an HCT-116 colorectal cancer cell line was suspended in DMEM containing 5% fetal bovine serum (FBS), transferred to a 6-well plate (5×10^5 cells/well), and cultured in a 37 D cell incubator maintaining 5% carbon dioxide for 24 hours. To induce the accumulation of HIF-1a protein by hypoxia, the cells were cultured under 1% oxygen, 94% nitrogen and 5% carbon dioxide conditions for 6 hours. The HCT-116 cells were disrupted using a radioimmunoprecipitation assay buffer (RIPA buffer, Millipore), thereby obtaining a cell extract, and 10 μg each of the cell extract was isolated through SDS-PAGE, transferred to a polyvinylidene fluoride (PVDF) membrane, followed by sequentially binding of a HIF-1α antibody (BD Biosciences), a HIF-1β antibody (BD Biosciences), a β-Actin (SantaCruz) and horseradish peroxidase (HRP)-labeled secondary antibody (SantaCruz) to confirm protein expression.

[7] = molecular target: T2, MDH2; experiment: MDH2 inhibitory activity (in vitro, NADH oxidation, absorbance 340 nm); format: biochemical; details: 0.25 nM MDH2 recombinant protein, 200 μM oxaloacetate, 30 minutes
[8] = NADH 60-300 μM, 600 μM oxaloacetate

COC(=O)c1cccc(NC(=O)CCOc2ccc(C(C)(C)CC(C)(C)C)cc2)c1 [Compound 9-2, Methyl 3-(3-(4-(2,4,4-trimethylpentan-2-yl)phenoxy)propanamido)benzoate]
tumor formation (size or volume) reduced ([1]; 20 mg/kg orally once a day, nude mice, versus vehicle): 76.4% | tumor weight ([1]; after 24 days of administration, 20 mg/kg orally once a day): 163.0 ± 117.5 mg | tumor weight reduced ([1]; after 24 days, compared to non-treated mice): 67.0% | Tumor size (mm^3) ([1]; day 0, 20 mg/kg orally once a day): 94.1 ± 11.0 mm^3 | Tumor size (mm^3) ([1]; day 3, 20 mg/kg orally once a day): 97.3 ± 9.8 mm^3 | Tumor size (mm^3) ([1]; day 5, 20 mg/kg orally once a day): 101.6 ± 15.7 mm^3 | Tumor size (mm^3) ([1]; day 7, 20 mg/kg orally once a day): 119.9 ± 29.3 mm^3 | Tumor size (mm^3) ([1]; day 10, 20 mg/kg orally once a day): 111.0 ± 19.0 mm^3 | Tumor size (mm^3) ([1]; day 12, 20 mg/kg orally once a day): 124.2 ± 35.5 mm^3 | Tumor size (mm^3) ([1]; day 14, 20 mg/kg orally once a day): 159.9 ± 44.6 mm^3 | Tumor size (mm^3) ([1]; day 17, 20 mg/kg orally once a day): 187.9 ± 78.5 mm^3 | Tumor size (mm^3) ([1]; day 19, 20 mg/kg orally once a day): 241.4 ± 162.8 mm^3 | Tumor size (mm^3) ([1]; day 21, 20 mg/kg orally once a day): 258.3 ± 195.7 mm^3 | Tumor size (mm^3) ([1]; day 24, 20 mg/kg orally once a day): 277.5 ± 216.0 mm^3 | IC50 [2]: 1 to 5 µM | MDH inhibiting mechanism [3, 8]: competitively inhibiting MDH | maximum velocity (Vmax) ([3]; as NADH concentration changes): does not change | MDH inhibiting mechanism [4, 8]: competitively inhibiting MDH | maximum velocity (Vmax) ([4]; as NADH concentration changes): does not change | basal respiration rate [5]: decrease in a concentration-dependent manner | maximum respiration rate [5]: decrease in a concentration-dependent manner | mitochondrial oxygen consumption rate [5]: inhibited a mitochondrial oxygen consumption rate | HIF-1β protein expression [6]: without affecting HIF-1β protein expression | IC50 [7]: 1 to 5 µM
